# Measurements as given in US20240335465A1 (University of Virginia Patent Foundation, priority 2021, published 2024).
# Columns and labels:
# ATM = ATM (Homo sapiens, UniProt Q13315); conditions: recombinant ATM and TBK1; 25 μM ATM inhibitor, 10 μM TBK1 inhibitor
# Description: 2× laemmli buffer was added and the mixture which was then incubated at 98° C. for 10 mins. The protein mixtures were separated on a 7.5% SDS/PAGE gel and immunoblotted for anti phospho-ATM (Ser1981) antibody to assess phosphorylation status if ATM. To test the effect of inhibitors on recombinant TBK1 mediated ATM phosphorylation, 25 μM ATM inhibitor, and 10 μM TBK1 inhibitor and was pre-incubated with recombinant ATM or recombinant TBK1 (TBK1 inhibitor) before setting up the kinase assay as described above.
# HEK293-TrLR cells = assay: HDR and NHEJ assay using Traffic Light Reporter; format: cell-based, human
# Description: TrLR-integrated HEK293 cells were selected through exposure to 5 μg/ml puromycin for 2 weeks. […] 8 hours following this procedure, cells were transfected with pCVL SFFV d14GFP Donor (Addgene Cat #31475), pCBASceI (Addgene Cat #26477)), or Donor+SceI using Lipofectamine 3000. 72 hours post-transfection, cells were trypsinized, collected, and analyzed with an Attune NxT flow cytometer (Thermofisher). To quantify the DNA repair events, ˜10,000-30,000 cells were acquired on an Attune NxT cytometer and analyzed using FCS Express software. Single cell events were determined by gating on the area against the width of the forward scatter pulse signal. Debris removal was performed by excluding events with very low forward and side scatter. For determining % of GFP and mCherry positive cells we established positive and negative populations using mock transfections as negative controls and GFP or mCherry transfected samples as Fluorescence Minus One controls.
# DDR signaling [1] = assay: DDR signaling immunoblot in HEK293 cells; format: cell-based, human; conditions: HEK293, 2 μM KU-55933 1 hr, cGAMP 16 hours
# cell cycle progression = assay: Cell cycle analysis by flow cytometry (BrdU, propidium iodide); format: cell-based, human
# Description: Cells were washed with cold PBS and resuspended in 0.5 ml PBS to achieve a single cell suspension. Cells were fixed in a tube containing 4.5 ml 70% ethanol kept at 4° C. overnight. Cells were collected by centrifugation at 500 g for 5 minutes and washed twice with PBS. Washed cells were then stained with 1 ml of freshly prepared staining solution containing propidium iodide (10 μg/ml), DNase-free RNaseA (100 μg/ml), and 0.1% (v/v) Triton X-100 before being subjected to flow cytometry measurement. To determine percentage of cell population in various cell cycle stage, ˜10,000-30,000 cells were acquired on an Attune NxT cytometer and analyzed using FCS Express software. Cell cycle analysis was performed on propidium iodide stained cells and single cell events were determined by gating on the area against the width of the propidium iodide pulse signal. DNA cell cycle modeling and fit was performed using the Multicycle AV plugin (Phoenix Flow Systems).
# Cells were fixed and stained to detect BrdU incorporation by flow cytometry following the manufacturer's protocol (FITC BrdU Flow Kit, BD Biosciences, Cat #559619).
# DDR signaling [2] = assay: DDR signaling immunoblotting in THP1 cells; conditions: for DDR induction in cells lacking STING or TBK1: STING−/− or shTBK1 cells
# DDR signaling [3] = assay: DDR signaling immunoblotting in primary mouse embryonic fibroblasts; conditions: for DDR signaling (γH2AX): cGAS−/− and cGAS GS198AA primary MEFs vs WT
# cGAS, STING, and TBK1 = conditions: doxorubicin 2 μM 6 hours; cGAMP 16 hours
# Description: Cell Fractionation: THP1 cells were treated as indicated, then nuclear and cytoplasmic fractions were isolated using NE-PER™ Nuclear and Cytoplasmic Extraction Reagents (Thermo Scientific, Catalogue #78833) following the manufacturer's protocol. 20 g of cytoplasmic and nuclear proteins were used for immunoblotting.
# cGAS [4] = assay: HA-cGAS co-immunoprecipitation in HA-cGAS-reconstituted cGAS−/− MEFs; format: cell-based, mouse; conditions: doxorubicin 2 μM 6 hours
# Description: Immunoprecipitation: Cells were treated as indicated and were lysed in RIPA buffer. Co-immunoprecipitation experiments were conducted using Dynabeads™ Protein G Immunoprecipitation Kits (Thermo Fisher, Catalogue #10007D) as per the manufacturer's protocol. 50 μl of Dynabead slurry was added to a microfuge tube and placed on a magnet to separate the solution. Beads were washed in 200 μl PBS with 0.1% Tween20 (3 times) before 5 μg antibody along with […] protein lysate diluted in PBS-tween20 to a final volume of 500 μl was added to the beads and incubated overnight at 4° C. with rotation. Beads were collected by magnetic separation and washed 3 times with wash buffer (10 mM Tris; adjust to pH 7.4, 1 mM EDTA; pH 8.0, 150 mM NaCl). Finally, bead-bound proteins were eluted by boiling in 1× Laemmli buffer and samples analyzed by western blotting.
# Nematostella vectensis = assay: DDR in starlet sea anemones; format: in vivo; conditions: whole animals; cGAMP in digitonin solution 10 minutes; doxorubicin 2 μM; 16 hours
# Text: Starlet sea anemones: Wild type, laboratory maintained, Self-sustaining Nematostella vectensis culture containing of 3-6 months old male and female animals (Putnam et al., 2007) was a kind gift from Timothy J. Jegla (Penn State University Department of Biology). They were maintained in 6-well plates containing water with Instant Ocean® Aquarium Sea Salt (50 gm/l) and fed brine shrimp. […] Permeabilization solution was removed and the animals returned to maintenance sea salt water. Doxorubicin was added to the maintenance sea salt water to a final concentration of 2 μM. 16 hours post treatment. N. vectensis were collected and washed once with cold PBS before the addition of 200 μl RIPA buffer. Samples were homogenized by sonication and centrifuged at 4° C. to remove debris. Soluble lysates were quantified for protein analysis by western blot.
# γH2AX = γH2AX immunofluorescence (human RPE, THP1 cells); format: cell-based
# Description: Immunofluorescence Staining: 16,500 adherent cells/cm^2 were plated on a gelatin coated 8-chamber slide (VWR, Catalogue #62407-296) and treated as indicated. Media was removed and cells were washed with 1×PBS with Ca^2+/Mg^2+ and fixed with 4% PFA for 20 minutes. Fixed cells were permeabilized with PBS+0.1% Triton-X and washed 3 times with PBS+0.1% Tween20. After treatment as indicated, non-adherent THP1 cells were collected by centrifugation, washed in cold PBS and fixed in PFA. Post-fixation, they were washed with PBS, spotted on gelatin coated “PTFE” Printed Slides (Electron Microscopy Sciences, Cat #63424-06), and air-dried. For γH2AX staining, permeabilized cells were blocked in Serum-free DAKO Protein Block (Agilent, Catalogue #X0909) for 1 hr at room temperature. Cells were incubated in primary antibody (γH2AX, 1:500; anti-HA, 1:100; Table 1) in DAKO antibody diluent at 4° C. overnight on a rocker platform. U2OS-STING cells undergoing Rad51 staining were first fixed in methanol for 20 minutes in −20° C., blocked for 1 hr with donkey block (2% normal donkey serum, 1% BSA, 0.1% Triton X 100, 0.05% Tween20, 0.05% Sodium Azide in PBS), then finally incubated in an anti-Rad51 antibody overnight at 4° C. (Bio-academia Cat #70-001, 1:6000 in 5% milk in TBST). For RPA70 staining, cells were fixed in 4% PFA at room temperature for 20 minutes and blocked in Cell Signaling blocking buffer (1×PBS/5% normal donkey serum/0.3% Triton™ X-100) for 1 hr in room temperature then incubated in an RPA70 antibody (Cell Signaling Cat #2267, 1:50 in blocking buffer) overnight at 4° C. Primary antibody was washed 3 times and incubated with secondary antibodies (Invitrogen, Alexa 555, 488) for 1 hr at room temperature. Coverslips were mounted on the cells with ProLong™ Gold Antifade mounting media with DAPI (Thermofisher, Catalogue #P36935). All images were obtained by confocal microscopy (Nikon, C2).
# Crassostrea virginica = assay: DDR in oysters after adductor muscle injection; format: in vivo; conditions: hemocytes; cGAMP 25 μg/50 gm, doxorubicin 1 μg/50 gm oyster weight, 16 hours
# Description: Oysters: Wild adult eastern oysters (Crassostrea virginica) of both male and female sexes ranging from 2 cm-7 cm in length (1 to 3 years in age) were collected from a natural oyster reef on Virgnia's Eastern Shore. Following collection, the diploid oysters were placed on ice and transported approximately 3 h to the University of Virginia main campus in Charlottesville, VA. There they were stored in an aerated aquarium containing water supplemented with Instant Ocean® Aquarium Sea Salt (50 gm/l). […] Treated oysters were kept at 4° C. in the dark for 16 hours after which they were shucked, had their hemolymph/tissues harvested for analysis by western blotting, and dead oyster and shell were disposed of.
# cGAMP = assay: 2′3′-cGAMP ELISA in THP1 cells; format: cell-based, human; conditions: WT THP1, 1 μM Doxorubicin, 1 hr
# PARP = PARP activity assay; format: cell-based, human
# Description: Post cGAMP treatment, cells were collected by centrifugation and washed with cold PBS once and resuspended in Cell Extraction Buffer. PARP activity was measured using the Chemiluminescent Assay Kit (R&D, Catalog Number: 4685-096-K) following manufacturer's protocol.
# PARylation = assay: PolyADP-ribosylation (PARylation) immunoblot; format: cell-based, human; conditions: THP1, 2 mM NAM 18 hours, 250 μM H2O2 10 minutes
# Text: Cells were collected by centrifugation, washed once with ice-cold PBS, lysed in RIPA buffer and analyzed by western blot to detect PARylation using pADPr Antibody (Santa Cruz sc-56198).
# NAD^+ = assay: NAD+ quantification; format: cell-based, human; conditions: THP1, 2 mM, 4 mM and 8 mM NAM, 18 hours
# cGAS [5] = conditions: Liu et al., 2018; cited from earlier work
# U2OS-STING cells = assay: RAD51 and RPA70 foci in EdU+ U2OS-STING cells; format: cell-based, human; conditions: EdU-positive S-phase cells, Camptothecin 5 μM 16 hours
# Description: Immunofluorescence Staining: 16,500 adherent cells/cm^2 were plated on a gelatin coated 8-chamber slide (VWR, Catalogue #62407-296) and treated as indicated. Media was removed and cells were washed with 1×PBS with Ca^2+/Mg^2+ and fixed with 4% PFA for 20 minutes. Fixed cells were permeabilized with PBS+0.1% Triton-X and washed 3 times with PBS+0.1% Tween20. After treatment as indicated, non-adherent THP1 cells were collected by centrifugation, washed in cold PBS and fixed in PFA. Post-fixation, they were washed with PBS, spotted on gelatin coated “PTFE” Printed Slides (Electron Microscopy Sciences, Cat #63424-06), and air-dried. For γH2AX staining, permeabilized cells were blocked in Serum-free DAKO Protein Block (Agilent, Catalogue #X0909) for 1 hr at room temperature. Cells were incubated in primary antibody (γH2AX, 1:500; anti-HA, 1:100; Table 1) in DAKO antibody diluent at 4° C. overnight on a rocker platform. […]
# EdU incorporated cells were detected by confocal microscopy after Click-iT® EdU labeling following the manufacturer's protocol (Click-iT™ EdU Alexa Fluor™ 594 Imaging Kit, Thermo Fisher Cat #C10339).
# Chain of ATM (Q13315 whole entry): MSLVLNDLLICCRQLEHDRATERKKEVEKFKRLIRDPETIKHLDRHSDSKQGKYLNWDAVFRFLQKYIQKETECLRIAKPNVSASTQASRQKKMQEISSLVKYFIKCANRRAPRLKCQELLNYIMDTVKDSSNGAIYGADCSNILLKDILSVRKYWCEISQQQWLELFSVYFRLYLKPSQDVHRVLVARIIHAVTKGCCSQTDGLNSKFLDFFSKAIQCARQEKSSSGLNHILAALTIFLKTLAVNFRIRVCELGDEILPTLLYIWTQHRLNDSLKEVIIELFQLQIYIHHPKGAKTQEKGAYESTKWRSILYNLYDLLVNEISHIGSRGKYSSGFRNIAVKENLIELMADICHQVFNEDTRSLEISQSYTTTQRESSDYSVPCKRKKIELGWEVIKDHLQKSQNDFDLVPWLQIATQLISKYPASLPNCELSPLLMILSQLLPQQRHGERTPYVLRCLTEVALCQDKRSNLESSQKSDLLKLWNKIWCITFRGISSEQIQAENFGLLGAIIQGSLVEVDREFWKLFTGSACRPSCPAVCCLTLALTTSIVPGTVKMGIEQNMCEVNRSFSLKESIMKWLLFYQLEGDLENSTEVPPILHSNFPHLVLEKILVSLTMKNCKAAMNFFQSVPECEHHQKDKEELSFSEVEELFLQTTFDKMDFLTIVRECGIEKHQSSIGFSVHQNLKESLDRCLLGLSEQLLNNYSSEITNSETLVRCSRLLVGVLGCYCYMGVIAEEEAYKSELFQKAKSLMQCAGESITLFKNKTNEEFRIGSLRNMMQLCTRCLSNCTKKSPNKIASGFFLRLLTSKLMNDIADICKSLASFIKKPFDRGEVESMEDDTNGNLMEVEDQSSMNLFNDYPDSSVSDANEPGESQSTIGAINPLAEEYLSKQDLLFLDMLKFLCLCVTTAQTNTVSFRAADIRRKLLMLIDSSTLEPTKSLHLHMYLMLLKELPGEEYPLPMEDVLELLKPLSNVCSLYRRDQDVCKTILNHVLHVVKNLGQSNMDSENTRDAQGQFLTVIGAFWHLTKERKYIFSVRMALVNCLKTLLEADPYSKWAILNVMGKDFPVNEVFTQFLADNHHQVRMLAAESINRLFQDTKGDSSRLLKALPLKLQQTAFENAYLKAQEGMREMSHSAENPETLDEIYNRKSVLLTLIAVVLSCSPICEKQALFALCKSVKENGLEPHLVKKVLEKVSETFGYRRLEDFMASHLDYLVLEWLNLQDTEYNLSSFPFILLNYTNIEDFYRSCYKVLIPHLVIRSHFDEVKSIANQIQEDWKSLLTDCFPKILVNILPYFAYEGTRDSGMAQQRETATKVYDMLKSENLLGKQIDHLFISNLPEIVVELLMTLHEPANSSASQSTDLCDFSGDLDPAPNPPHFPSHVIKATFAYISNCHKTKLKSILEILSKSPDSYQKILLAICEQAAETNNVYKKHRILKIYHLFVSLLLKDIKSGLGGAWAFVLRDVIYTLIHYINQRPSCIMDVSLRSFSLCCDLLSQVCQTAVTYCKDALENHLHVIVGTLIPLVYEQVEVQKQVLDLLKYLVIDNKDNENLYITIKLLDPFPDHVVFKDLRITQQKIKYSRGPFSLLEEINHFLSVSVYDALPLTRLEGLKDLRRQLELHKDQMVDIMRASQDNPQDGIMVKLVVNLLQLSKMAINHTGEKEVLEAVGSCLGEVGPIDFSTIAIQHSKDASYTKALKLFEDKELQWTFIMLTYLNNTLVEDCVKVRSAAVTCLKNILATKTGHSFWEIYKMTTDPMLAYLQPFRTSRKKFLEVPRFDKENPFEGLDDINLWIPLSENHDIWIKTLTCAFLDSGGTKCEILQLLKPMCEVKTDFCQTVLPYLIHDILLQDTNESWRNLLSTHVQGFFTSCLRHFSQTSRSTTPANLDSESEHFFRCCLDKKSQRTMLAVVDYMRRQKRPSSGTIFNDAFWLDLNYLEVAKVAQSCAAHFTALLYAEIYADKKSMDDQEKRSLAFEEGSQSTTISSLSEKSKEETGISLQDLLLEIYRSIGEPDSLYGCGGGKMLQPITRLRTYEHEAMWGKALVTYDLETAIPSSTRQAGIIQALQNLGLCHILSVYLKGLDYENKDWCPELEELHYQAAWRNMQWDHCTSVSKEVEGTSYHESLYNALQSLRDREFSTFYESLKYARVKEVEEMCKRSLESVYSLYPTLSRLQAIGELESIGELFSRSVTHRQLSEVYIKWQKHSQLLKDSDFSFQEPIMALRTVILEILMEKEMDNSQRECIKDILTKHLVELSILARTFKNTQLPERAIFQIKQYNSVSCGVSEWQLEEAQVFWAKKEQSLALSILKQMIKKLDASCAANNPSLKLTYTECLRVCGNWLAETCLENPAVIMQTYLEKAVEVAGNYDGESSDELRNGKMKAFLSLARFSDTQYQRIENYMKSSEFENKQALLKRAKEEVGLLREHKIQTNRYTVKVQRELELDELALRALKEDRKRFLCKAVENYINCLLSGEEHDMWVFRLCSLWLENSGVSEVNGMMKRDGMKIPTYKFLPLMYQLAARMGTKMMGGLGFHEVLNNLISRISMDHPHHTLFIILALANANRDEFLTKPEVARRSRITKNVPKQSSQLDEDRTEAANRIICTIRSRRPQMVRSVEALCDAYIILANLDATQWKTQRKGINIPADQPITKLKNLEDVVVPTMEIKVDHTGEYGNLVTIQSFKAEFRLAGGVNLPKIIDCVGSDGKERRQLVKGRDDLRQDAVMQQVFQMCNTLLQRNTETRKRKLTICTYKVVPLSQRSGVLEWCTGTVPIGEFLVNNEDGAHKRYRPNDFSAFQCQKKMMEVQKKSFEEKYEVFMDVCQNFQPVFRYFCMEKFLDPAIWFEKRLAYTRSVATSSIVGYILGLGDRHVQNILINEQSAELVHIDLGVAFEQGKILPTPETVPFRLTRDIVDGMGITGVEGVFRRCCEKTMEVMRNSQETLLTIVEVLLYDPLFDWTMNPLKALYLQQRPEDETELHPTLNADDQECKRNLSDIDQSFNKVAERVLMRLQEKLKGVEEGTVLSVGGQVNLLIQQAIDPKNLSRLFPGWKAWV
molecule,measurement,setting,value
O=c1cc(-c2cccc3c2Sc2ccccc2S3)oc(N2CCOCC2)c1 [KU55933],ATM phosphorylation on Ser1981,ATM,suppressed
same,HDR under ATM inhibition alone,HEK293-TrLR cells; 25 μM KU-55933,impeded HDR in its own right
same,effect on cGAMP-induced γH2AX and pCHK2,DDR signaling [1],suppressed the ability of cGAMP to induce γH2AX and pCHK2
same,effect of ATM inhibitor on cGAMP-induced G1 arrest,"cell cycle progression; WT THP1, 25 μM KU-55933, cGAMP 24 hours",suppressed the ability of cGAMP to induce γH2AX and pCHK2 (FIG. 9A) and to induce G1 arrest
O=C(NCCCNc1nc(Nc2cccc(CN3CCOCC3)c2)ncc1C1CC1)C1CCC1 [MRT67307],ATM phosphorylation on Ser1981,ATM,suppressed
same,"effect on cGAMP-induced phosphorylation of ATM (S1981), CHK2, and H2AX","DDR signaling [2]; THP1 pretreated with 2 μM TBK1 inhibitor, cGAMP 16 hours","suppressed cGAMP-induced phosphorylation of ATM (S1981), CHK2, and H2AX"
CC[C@@]1(O)C(=O)OCc2c1cc1n(c2=O)Cc2cc3ccccc3nc2-1 [camptothecin],DDR signaling (γH2AX),DDR signaling [3],suppressed both in cGAS^−/− and cGAS^(GS198AA) primary MEFs
same,DDR induction in cells lacking STING or TBK1,DDR signaling [2],abrogated
same,"phosphorylation of H2AX, ATM, and CHK2","DDR signaling [2]; cGAS−/− THP1, camptothecin 2 μM 4 hours",all suppressed
COc1cccc2c1C(=O)c1c(O)c3c(c(O)c1C2=O)C[C@@](O)(C(=O)CO)C[C@@H]3O[C@H]1C[C@H](N)[C@H](O)[C@H](C)O1 [doxorubicin],"nuclear enrichment of TBK1, pTBK1, STING","cGAS, STING, and TBK1",promoted nuclear enrichment of TBK1 but not STING
same,nuclear enrichment of cGAS,"cGAS, STING, and TBK1",nuclear enrichment of cGAS
same,DDR signaling (γH2AX),DDR signaling [3],suppressed both in cGAS^−/− and cGAS^(GS198AA) primary MEFs
same,cGAS association with ATM,cGAS [4],detected no such interactions
same,cGAS complex with γH2AX,cGAS [4],nuclear translocated cGAS was found in a complex with γH2AX
same,DDR induction in cells lacking STING or TBK1,DDR signaling [2],abrogated
same,TBK1 phosphorylation (pTBK1),Nematostella vectensis,TBK1 phosphorylation
same,γH2AX,Nematostella vectensis,elevated levels of γH2AX
same,γH2AX foci in cGAS- and STING-deficient cells,γH2AX; doxorubicin-treated THP1 cells,significant reduction in the intensity of γH2AX foci
same,γH2AX staining pattern,"γH2AX; human RPE cells, doxorubicin 2 hours, cGAMP or HT-DNA 6 hours",catalyzed the formation of γH2AX foci characteristic of DSB induction
same,TBK1 phosphorylation (pTBK1),Crassostrea virginica,TBK1 phosphorylation
same,γH2AX,Crassostrea virginica,elevated levels of γH2AX
same,cGAMP production,cGAMP,reacted by producing cGAMP
NC(=O)c1cccnc1 [nicotinamide],effect on cGAMP-driven inhibition of cellular PARP enzymatic activity,"PARP; THP1, 2 mM, 4 mM and 8 mM NAM, 18 hours",overcame cGAMP-driven inhibition of cellular PARP enzymatic activity
same,effect on cGAMP-driven inhibition of protein PARylation,PARylation,abrogated cGAMP-driven inhibition of protein PARylation and HDR
same,effect on cGAMP-driven inhibition of HDR,HEK293-TrLR cells; 2 mM and 4 mM NAM,abrogated cGAMP-driven inhibition of protein PARylation and HDR
same,cellular NAD^+ levels with nicotinamide supplementation,NAD^+,Boosting cellular NAD^+ levels
O=C(c1cc(Cc2n[nH]c(=O)c3ccccc23)ccc1F)N1CCN(C(=O)C2CC2)CC1 [olaparib],cGAS-PARP1 interactions and DNA damage-induced nuclear cGAS translocation,cGAS [5],blocked
CNCc1ccc(-c2[nH]c3cc(F)cc4c3c2CCNC4=O)cc1 [rucaparib],DNA damage-induced RAD51 and RPA foci formation,U2OS-STING cells,suppressed DNA damage-induced RAD51 and RPA foci formation in EdU-positive S-phase cells
same,PARP enzymatic activity in cell lysates,"PARP; THP1, cGAMP 6 hours, Rucaparib 10 μM, 6 hr",lower PARP enzymatic activity
same,HDR,HEK293-TrLR cells; 1 μM PARP inhibitor (Rucaparib),significantly reduced HDR in TrLR reporter cells
same,abundance of S/G2-phase cells,"cell cycle progression; THP1 10 μM Rucaparib (propidium iodide), U2OS-STING (EdU)",causes increased abundance of S/G2-phase cells
Pam3CSK4,DDR activation (γH2AX),"DDR signaling [3]; WT primary MEF, Pam3CSK4 500 ng/ml 6 hours, HT-DNA 4 ug/6-well 6 hours, 5′ppp-dsRNA 0.5 μg/6 well 6 hours, cGAMP 16 hours",failed to stimulate the DDR
